# Assay results published in ChEMBL document CHEMBL1147781, “Design, synthesis and in vitro antimalarial activity of an acylhydrazone library” (Bioorg Med Chem Lett, 2006).
# Test system: Plasmodium falciparum
# Experiment: Growth inhibition of chloroquine-resistant Plasmodium falciparum FcB1 at 1 uM
# Format: functional
row,SMILES,inhibition at 1 µM [%]
1,COc1ccc(O)c(/C=N/NC(=O)Cc2ccccc2)c1,45
2,CCN(CC)c1ccc(/C=N/NC(=O)c2ccc(O)cc2)c(O)c1,12
3,O=C(N/N=C/c1cc(Br)ccc1O)c1cccs1,38
4,CCN(CC)c1ccc(/C=N/NC(=O)c2ccc(Cl)cc2)c(O)c1,45
5,COc1ccc(C(=O)N/N=C/c2cc(Br)ccc2O)cc1,29
6,COc1cccc(/C=N/NC(C)=O)c1O,33
7,COc1ccc(C(=O)N/N=C/c2ccc(OC)cc2O)cc1,9
8,CC(=O)N/N=C/c1cc(C(C)(C)C)ccc1O,32
9,Cc1ccc(O)c(/C=N/NC(=O)c2ccccc2)c1,49
10,COc1ccc(C(=O)N/N=C/c2cccc(O)c2O)cc1,21
11,O=C(N/N=C/c1ccccc1O)c1ccco1,21
12,COc1ccc(/C=N/NC(=O)c2ccc([N+](=O)[O-])cc2)c(O)c1,45
13,COc1cccc(/C=N/NC(=O)c2ccc([N+](=O)[O-])cc2)c1O,32
14,O=C(N/N=C/c1cc(O)ccc1O)c1cccnc1,7
15,COc1ccc(O)c(/C=N/NC(=O)c2ccco2)c1,33
16,COc1ccc(C(=O)N/N=C/c2cc(O)ccc2O)cc1,39
17,CC(C)(C)c1ccc(C(=O)N/N=C/c2cc(O)ccc2O)cc1,38
18,COc1ccc(C(=O)N/N=C/c2cc(C)ccc2O)cc1,28
19,O=C(N/N=C/c1cc([N+](=O)[O-])ccc1O)c1ccco1,16
20,O=C(N/N=C/c1cc([N+](=O)[O-])ccc1O)c1ccncc1,15
21,O=C(N/N=C/c1cc(Br)ccc1O)c1ccncc1,29
22,COc1ccc(O)c(/C=N/NC(=O)c2ccncc2)c1,34
23,COc1ccc(O)c(/C=N/NC(=O)c2ccccc2)c1,38
24,O=C(N/N=C/c1cc(O)ccc1O)c1ccncc1,26
25,O=C(N/N=C/c1cc(O)ccc1O)c1cccs1,19

row,SMILES,inhibition at 1 µM [%]
1,COc1ccc(O)c(/C=N/NC(C)=O)c1,3
2,COc1ccc(O)c(/C=N/NC(=O)c2ccc(C(C)(C)C)cc2)c1,47
3,O=C(N/N=C/c1cc([N+](=O)[O-])ccc1O)c1cccs1,21
4,CC(C)(C)c1ccc(O)c(/C=N/NC(=O)c2ccc(O)cc2)c1,31
5,O=C(N/N=C/c1cc([N+](=O)[O-])ccc1O)c1cccnc1,19
6,O=C(N/N=C/c1cc(O)ccc1O)c1ccccc1,0
7,COc1ccc(O)c(/C=N/NC(=O)c2ccc([N+](=O)[O-])cc2)c1,14
8,CCN(CC)c1ccc(/C=N/NC(=O)c2cccnc2)c(O)c1,2
9,O=C(N/N=C/c1cc(Br)ccc1O)c1ccc(O)cc1,10
10,CCN(CC)c1ccc(/C=N/NC(=O)c2cccs2)c(O)c1,37
11,CC(=O)N/N=C/c1cc([N+](=O)[O-])ccc1O,22
12,COc1ccc(O)c(/C=N/NC(=O)c2ccc(Cl)cc2)c1,24
13,CC(C)(C)c1ccc(O)c(/C=N/NC(=O)c2cccnc2)c1,32
14,CCN(CC)c1ccc(/C=N/NC(=O)c2ccc(OC)cc2)c(O)c1,39
15,Cc1ccc(O)c(/C=N/NC(=O)c2ccncc2)c1,8
16,COc1ccc(O)c(/C=N/NC(=O)c2cccs2)c1,24
17,Cc1ccc(O)c(/C=N/NC(=O)c2cccnc2)c1,33
18,COc1ccc(/C=N/NC(=O)c2ccc(O)cc2)c(O)c1,14
19,O=C(Cc1ccccc1)N/N=C/c1cc(O)ccc1O,4
20,COc1ccc(/C=N/NC(C)=O)c(O)c1,4
21,COc1ccc(/C=N/NC(=O)c2ccco2)c(O)c1,45
22,O=C(N/N=C/c1cc(Br)ccc1O)c1ccc(Cl)cc1,36
23,CCN(CC)c1ccc(/C=N/NC(=O)c2ccco2)c(O)c1,23
24,COc1ccc(/C=N/NC(=O)c2ccncc2)c(O)c1,35
25,CCN(CC)c1ccc(/C=N/NC(C)=O)c(O)c1,34

row,SMILES,inhibition at 1 µM [%]
1,CC(=O)N/N=C/c1cccc(O)c1O,29
2,COc1cccc(/C=N/NC(=O)c2ccco2)c1O,41
3,COc1ccc(O)c(/C=N/NC(=O)c2cccnc2)c1,24
4,Cc1ccc(O)c(/C=N/NC(=O)c2cccs2)c1,23
5,CC(=O)N/N=C/c1cc(C)ccc1O,32
6,COc1cccc(/C=N/NC(=O)c2ccc(Cl)cc2)c1O,36
7,CC(=O)N/N=C/c1cc(Br)ccc1O,17
8,CC(C)(C)c1ccc(C(=O)N/N=C/c2cc([N+](=O)[O-])ccc2O)cc1,36
9,O=C(N/N=C/c1cccc(O)c1O)c1cccs1,29
10,COc1cccc(/C=N/NC(=O)Cc2ccccc2)c1O,30
11,O=C(N/N=C/c1ccc(O)cc1O)c1ccc([N+](=O)[O-])cc1,18
12,COc1cccc(/C=N/NC(=O)c2ccc(C(C)(C)C)cc2)c1O,39
13,COc1cccc(/C=N/NC(=O)c2cccs2)c1O,16
14,O=C(N/N=C/c1cc(O)ccc1O)c1ccco1,21
15,COc1ccc(C(=O)N/N=C/c2cc([N+](=O)[O-])ccc2O)cc1,26
16,COc1ccc(/C=N/NC(=O)c2cccs2)c(O)c1,24
17,O=C(N/N=C/c1cc(O)ccc1O)c1ccc([N+](=O)[O-])cc1,28
18,Cc1ccc(O)c(/C=N/NC(=O)c2ccc(O)cc2)c1,24
19,COc1cccc(/C=N/NC(=O)c2ccc(O)cc2)c1O,16
20,O=C(N/N=C/c1cc(Br)ccc1O)c1cccnc1,21
21,CC(C)(C)c1ccc(C(=O)N/N=C/c2cccc(O)c2O)cc1,41
22,COc1ccc(/C=N/NC(=O)Cc2ccccc2)c(O)c1,41
23,COc1cccc(/C=N/NC(=O)c2ccccc2)c1O,10
24,O=C(N/N=C/c1cccc(O)c1O)c1ccc(O)cc1,20
25,O=C(N/N=C/c1ccc(O)cc1O)c1cccs1,13

row,SMILES,inhibition at 1 µM [%]
1,O=C(N/N=C/c1ccc(O)cc1O)c1ccc(O)cc1,15
2,O=C(N/N=C/c1cc([N+](=O)[O-])ccc1O)c1ccc([N+](=O)[O-])cc1,31
3,COc1cccc(/C=N/NC(=O)c2ccncc2)c1O,43
4,O=C(N/N=C/c1cccc(O)c1O)c1ccc([N+](=O)[O-])cc1,24
5,O=C(N/N=C/c1ccc(O)cc1O)c1cccnc1,23
6,O=C(N/N=C/c1cc(O)ccc1O)c1ccc(Cl)cc1,25
7,Cc1ccc(O)c(/C=N/NC(=O)c2ccco2)c1,37
8,Cc1ccc(O)c(/C=N/NC(=O)Cc2ccccc2)c1,19
9,O=C(N/N=C/c1ccccc1O)c1ccc([N+](=O)[O-])cc1,4
10,Cc1ccc(O)c(/C=N/NC(=O)c2ccc([N+](=O)[O-])cc2)c1,46
11,CC(C)(C)c1ccc(O)c(/C=N/NC(=O)c2ccncc2)c1,40
12,COc1cccc(/C=N/NC(=O)c2cccnc2)c1O,32
13,O=C(N/N=C/c1cccc(O)c1O)c1ccccc1,30
14,O=C(N/N=C/c1cccc(O)c1O)c1cccnc1,16
15,COc1ccc(/C=N/NC(=O)c2ccccc2)c(O)c1,32
16,COc1ccc(C(=O)N/N=C/c2ccc(O)cc2O)cc1,29
17,O=C(N/N=C/c1cc([N+](=O)[O-])ccc1O)c1ccccc1,21
18,COc1ccc(C(=O)N/N=C/c2cccc(OC)c2O)cc1,37
19,O=C(N/N=C/c1ccc(O)cc1O)c1ccco1,13
20,COc1ccc(C(=O)N/N=C/c2ccccc2O)cc1,14
21,CC(C)(C)c1ccc(C(=O)N/N=C/c2ccc(O)cc2O)cc1,37
22,CC(C)(C)c1ccc(C(=O)N/N=C/c2cc(C(C)(C)C)ccc2O)cc1,48
23,O=C(Cc1ccccc1)N/N=C/c1cc([N+](=O)[O-])ccc1O,0
24,O=C(Cc1ccccc1)N/N=C/c1cc(Br)ccc1O,33
25,O=C(N/N=C/c1cc([N+](=O)[O-])ccc1O)c1ccc(O)cc1,4

row,SMILES,inhibition at 1 µM [%]
1,CC(C)(C)c1ccc(O)c(/C=N/NC(=O)c2ccco2)c1,14
2,O=C(N/N=C/c1cccc(O)c1O)c1ccco1,20
3,CC(=O)N/N=C/c1ccccc1O,0
4,CCN(CC)c1ccc(/C=N/NC(=O)c2ccncc2)c(O)c1,18
5,O=C(Cc1ccccc1)N/N=C/c1cccc(O)c1O,19
6,O=C(N/N=C/c1cc([N+](=O)[O-])ccc1O)c1ccc(Cl)cc1,31
7,CC(=O)N/N=C/c1cc(O)ccc1O,25
8,COc1ccc(C(=O)N/N=C/c2cc(OC)ccc2O)cc1,18
9,COc1ccc(/C=N/NC(=O)c2ccc(Cl)cc2)c(O)c1,8
10,O=C(N/N=C/c1cccc(O)c1O)c1ccncc1,11
11,O=C(N/N=C/c1cccc(O)c1O)c1ccc(Cl)cc1,13
12,COc1ccc(O)c(/C=N/NC(=O)c2ccc(O)cc2)c1,20
13,CC(C)(C)c1ccc(O)c(/C=N/NC(=O)Cc2ccccc2)c1,14
14,COc1ccc(/C=N/NC(=O)c2ccc(C(C)(C)C)cc2)c(O)c1,43
15,CC(C)(C)c1ccc(C(=O)N/N=C/c2ccccc2O)cc1,43
16,O=C(N/N=C/c1cc(Br)ccc1O)c1ccco1,35
17,O=C(N/N=C/c1cc(Br)ccc1O)c1ccccc1,47
18,O=C(N/N=C/c1ccc(O)cc1O)c1ccc(Cl)cc1,16
19,O=C(N/N=C/c1cc(O)ccc1O)c1ccc(O)cc1,4
20,O=C(N/N=C/c1ccc(O)cc1O)c1ccccc1,14
21,COc1ccc(/C=N/NC(=O)c2cccnc2)c(O)c1,38
22,O=C(N/N=C/c1cc(Br)ccc1O)c1ccc([N+](=O)[O-])cc1,17
